{"source": "patent US20110269799A1", "about": "(priority 2008, published 2011)", "key": {"[1]": {"test_system": "patients with atrial fibrillation", "method": "PETRO-Ex began while the PETRO study was ongoing and investigators were initially kept blinded to patient treatment group until PETRO was completed. Unblinding investigators to patient treatment was possible thereafter.\nData were summarized descriptively; no hypothesis was to be tested. Events were analyzed on the basis of the treatment at onset. Incidences were reported as number of patients with events as well as normalized to 100 patient-years on the respective treatment.\nPatients who completed PETRO on 50 mg b.i.d. were switched to 150 mg q.d. upon entry in the PETRO-Ex study (N=93 patients). […] Patients who were down titrated to 50 mg q.d. based on a glomerular filtration rate<50 mL/min during PETRO were excluded from the long-term trial; patients down-titrated in other dose levels remained on the q.d. treatment at that dose."}, "[2]": {"test_system": "patients with chronic atrial fibrillation", "assay": "PETRO phase 2 12-week dose finding study, dabigatran etexilate alone or with aspirin vs. warfarin", "type": "in vivo, human", "excerpt": "Primary endpoints were bleeding events and changes in D-dimer. […] Minor bleeding was dose related."}, "[3]": {"test_system": "cytochrome P-450 drug metabolizing enzymes", "assay": "Cytochrome P-450 metabolism, induction and inhibition", "type": "in vitro ADME"}}, "note": "Like-named read-outs stand apart in the source and are kept apart here. Marks after values point to notes of the source that are not given here.", "data": [{"smiles": "CCCCCCOC(=O)NC(=N)c1ccc(NCc2nc3cc(C(=O)N(CCC(=O)OCC)c4ccccn4)ccc3n2C)cc1", "note": "[Dabigatran etexilate, 1-methyl-2-[N-[4-(N-n-hexyloxycarbonylamidino)phenyl]aminomethyl]benzimidazol-5-ylcarboxylic acid-N-(2-pyridyl)-N-(2-ethoxycarbonylethyl)amides]", "values": [{"measurement": "Adverse Events leading to premature discontinuation, rate", "setting": "[1]; 50 mg b.i.d.", "result": 21.3, "unit": "% per year"}, {"measurement": "Thromboembolic events", "setting": "[1]; 50 mg b.i.d.", "result": "more than 12 events per 100 years"}, {"measurement": "ALT or AST > 2xULN, rate", "setting": "[1]; 150 mg b.i.d.", "result": 3.1, "unit": "% per year"}, {"measurement": "ALT or AST > 3xULN and Bili > 2xULN within 30 days, rate", "setting": "[1]; 150 mg b.i.d.", "result": 0.4, "unit": "% per year"}, {"measurement": "ALT or AST > 3xULN, rate", "setting": "[1]; 150 mg b.i.d.", "result": 1.9, "unit": "% per year"}, {"measurement": "ALT or AST > 5xULN, rate", "setting": "[1]; 150 mg b.i.d.", "result": 1.0, "unit": "% per year"}, {"measurement": "Adverse Events leading to premature discontinuation, rate", "setting": "[1]; 150 mg b.i.d.", "result": 9.8, "unit": "% per year"}, {"measurement": "Major Bleeds, of these without aspirin, rate", "setting": "[1]; 150 mg b.i.d.", "result": 3.2, "unit": "% per year"}, {"measurement": "Major Bleeds, rate", "setting": "[1]; 150 mg b.i.d.", "result": 4.2, "unit": "% per year"}, {"measurement": "Major Bleeds, with aspirin, rate", "setting": "[1]; 150 mg b.i.d.", "result": 8.7, "unit": "% per year"}, {"measurement": "Stroke and Systemic Thromboembolism, rate", "setting": "[1]; 150 mg b.i.d.", "result": 1.0, "unit": "% per year"}, {"measurement": "ALT or AST > 2xULN, rate", "setting": "[1]; 150 mg q.d.", "result": 3.4, "unit": "% per year"}, {"measurement": "Adverse Events leading to premature discontinuation, rate", "setting": "[1]; 150 mg q.d.", "result": 13.7, "unit": "% per year"}, {"measurement": "Major Bleeds, of these without aspirin, rate", "setting": "[1]; 150 mg q.d.", "result": 6.5, "unit": "% per year"}, {"measurement": "Major Bleeds, rate", "setting": "[1]; 150 mg q.d.", "result": 5.1, "unit": "% per year"}, {"measurement": "Thromboembolic events", "setting": "[1]; 150 mg q.d., per 100 years", "result": "about 5 events"}, {"measurement": "ALT or AST > 2xULN, rate", "setting": "[1]; 300 mg b.i.d.", "result": 4.9, "unit": "% per year"}, {"measurement": "ALT or AST > 3xULN, rate", "setting": "[1]; 300 mg b.i.d.", "result": 2.4, "unit": "% per year"}, {"measurement": "ALT or AST > 5xULN, rate", "setting": "[1]; 300 mg b.i.d.", "result": 1.2, "unit": "% per year"}, {"measurement": "Adverse Events leading to premature discontinuation, rate", "setting": "[1]; 300 mg b.i.d.", "result": 25.6, "unit": "% per year"}, {"measurement": "Bleeding events", "setting": "[1]; 300 mg b.i.d.", "result": "more than 12 per 100 years"}, {"measurement": "Major Bleeds, of these without aspirin, rate", "setting": "[1]; 300 mg b.i.d.", "result": 6.3, "unit": "% per year"}, {"measurement": "Major Bleeds, rate", "setting": "[1]; 300 mg b.i.d.", "result": 12.2, "unit": "% per year"}, {"measurement": "Major Bleeds, with aspirin, rate", "setting": "[1]; 300 mg b.i.d.", "result": 32.7, "unit": "% per year"}, {"measurement": "Thromboembolic events", "setting": "[1]; 300 mg b.i.d.", "result": "about 1 event per 100 years"}, {"measurement": "ALT or AST > 2xULN, rate", "setting": "[1]; 300 mg q.d.", "result": 1.5, "unit": "% per year"}, {"measurement": "ALT or AST > 3xULN and Bili > 2xULN within 30 days, rate", "setting": "[1]; 300 mg q.d.", "result": 0.5, "unit": "% per year"}, {"measurement": "ALT or AST > 3xULN, rate", "setting": "[1]; 300 mg q.d.", "result": 1.5, "unit": "% per year"}, {"measurement": "ALT or AST > 5xULN, rate", "setting": "[1]; 300 mg q.d.", "result": 1.5, "unit": "% per year"}, {"measurement": "Adverse Events leading to premature discontinuation, rate", "setting": "[1]; 300 mg q.d.", "result": 9.6, "unit": "% per year"}, {"measurement": "Major Bleeds, of these without aspirin, rate", "setting": "[1]; 300 mg q.d.", "result": 2.1, "unit": "% per year"}, {"measurement": "Major Bleeds, rate", "setting": "[1]; 300 mg q.d.", "result": 2.5, "unit": "% per year"}, {"measurement": "Major Bleeds, with aspirin, rate", "setting": "[1]; 300 mg q.d.", "result": 3.6, "unit": "% per year"}, {"measurement": "Thromboembolic events", "setting": "[1]; 300 mg q.d., per 100 years", "result": "more than 2 events"}, {"measurement": "Major bleeding events (per 100 patient years)", "setting": "[1]; PETRO-Ex, 150 mg b.i.d., without concomitant aspirin", "result": 3.2, "unit": "%*"}, {"measurement": "LFT abnormalities > 3 xULN (per 100 patient years)", "setting": "[1]; PETRO-Ex, all doses", "result": 1.7, "unit": "%"}, {"measurement": "ALT or AST > 2xULN, rate", "setting": "[1]; Total, all doses", "result": 2.9, "unit": "% per year"}, {"measurement": "ALT or AST > 3xULN and Bili > 2xULN within 30 days, rate", "setting": "[1]; Total, all doses", "result": 0.4, "unit": "% per year"}, {"measurement": "ALT or AST > 3xULN, rate", "setting": "[1]; Total, all doses", "result": 1.7, "unit": "% per year"}, {"measurement": "ALT or AST > 5xULN, rate", "setting": "[1]; Total, all doses", "result": 1.1, "unit": "% per year"}, {"measurement": "Adverse Events leading to premature discontinuation, rate", "setting": "[1]; Total, all doses", "result": 11.5, "unit": "% per year"}, {"measurement": "Major Bleeds, of these without aspirin, rate", "setting": "[1]; Total, all doses", "result": 3.2, "unit": "% per year"}, {"measurement": "Major Bleeds, rate", "setting": "[1]; Total, all doses", "result": 4.2, "unit": "% per year"}, {"measurement": "Major Bleeds, with aspirin, rate", "setting": "[1]; Total, all doses", "result": 8.5, "unit": "% per year"}, {"measurement": "Major bleeding events", "setting": "[2]; 300 mg b.i.d. plus ASA groups, 12 weeks", "result": 6, "unit": "%"}, {"measurement": "Minor bleeding", "setting": "[2]; 50, 150, 300 mg b.i.d.", "result": "dose related"}, {"measurement": "Elevated transaminases >3x upper limit of normal (ULN)", "setting": "[2]; all dabigatran etexilate-treated patients (432)", "result": 0.9, "unit": "%"}, {"measurement": "Metabolism by, induction or inhibition of cytochrome P-450 enzymes", "setting": "[3]", "result": "not metabolized by and does not induce or inhibit cytochrome P-450 drug metabolizing enzymes"}]}]}
